Laboratory results reported in article PMC7531004, “Discovery of gramicidin A analogues with altered activities by multidimensional screening of a one-bead-one-compound library” (Nature Communications, 2020).
Several values for one entry are separate records, joined by “and”; a condition that tells them apart may be missing. Equal entries are not always repeated. Where two headings read alike, the source gives them in different places. Where a SMILES comes first, the peptide text is derived from it. [ ]: non-standard residue; d: D form. The star is where a group is joined. NHCH2CH2OH = OCCN*; For = O=C*

Columns and labels:
[1] = H+/Na+ transport assay of purified peptides; details: for Supplementary Figure 5 dose-response value (H+/Na+ transport): three replicate lines
[2] = Protocol: Second, we examined the cytotoxicity toward mammalian cancer cells and hemolytic activity of 1. […] Hemolytic activity was evaluated by monitoring hemoglobin leakage from rabbit red blood cells as a consequence of membrane damage. The concentration of 1 required to cause 10% hemoglobin leakage (HC10) was 160 nM. Thus, the P388 cytotoxicity of 1 was 28-fold more sensitive than its hemolytic activity.
Mammalian cytotoxicity assay of purified peptides.
B22 was diluted with the growth medium with 2% DMSO to various concentrations as 5-fold serial dilution.
The collected cells were resuspended into
the growth medium at 2 × 10^4 cells/mL. Aliquots of the former medium (2% DMSO, 100 µL) containing
peptides and the latter medium containing P388 cells (100 µL) were mixed in a 96-well cell culture plate
(TR5003, TrueLine). The final concentration of P388 cells and DMSO were 1 × 10^4 cells/mL and 1%,
respectively. […]
were determined by WST -1 assay. A solution of 1-methoxy PMS and WST-1 in the growth medium
(1-methoxy PMS 0.70 mg/mL in Milli-Q/WST-1 3.6 mg/mL in pH 7.4 HEPES buffer = 1/9) was added to
each well of the plate (20.0 µL/well). The cells were incubated for 4 h under atmosphere of 5% CO 2 at
37 °C. The absorbance of each well at 415 nm was measured using a Benchmark microplate reader
(Bio-Rad) or Thermo Scientifi c Multiskan GO (Thermo Fisher Scientific). The cytotoxicities of the purified
peptides were evaluated as IC 50 (nM) by means of three replicates. Sigmoidal curve fittings were performed

[3] = test system: MSSA1 (methicillin-susceptible Staphylococcus aureus); type: cell-based
Protocol: (§1) Evaluation of antibacterial spectra of purified peptides. The MIC assay was performed according to the Clinical and Laboratory Standards Institute protocols. The antibacterial activities of the purified peptides A1, B01–B04, B11–B13, B21, and B22 were measured using the broth microdilution method. 6 Serial dilutions of the peptides were prepared in cation adjusted Mueller Hinton Broth. Each dilution (100 µL) was dispensed to each well of the round-bottom plate to obtain final concentrations ranging from 64 µg/mL to 0.00024 µg/mL. Bacteria were grown at 37 °C overnight on Tryptic Soy Broth or Mueller Hinton Broth agar plates.
(§2) The bacterial colonies were suspended in 0.9% saline to obtain OD 625 of 0.08–0.13 using a spectrophotometer UV-1280 (Shimadzu). The resultant suspension was diluted with cation adjusted Mueller Hinton Broth (1/20). The resultant mixture (10 .0 µL) was inoculated to each well of the plates (approximately 5 × 10^4 CFU/well), mixed, and incubated at 37 °C for 18–24 h. The MIC value was determined as the minimum concentration that inhibited growth of bacteria. For Streptococcus species, cation adjusted Mueller Hinton Broth supplemented with 5% laked horse blood was used. […]

[4] = Membrane disruption assay of purified peptides (carboxyfluorescein leakage); type: biochemical; design: key: % lysis; Triton X-100 = 100%, DMSO = 0%; details: three replicate lines
Protocol: Membrane disruption assay of purified peptides. 5(6)-Carboxyfluorescein (CF)-encapsulated large […]
through Nuclepore polycarbonate filters mounted in the mini-extruder apparatus. A solution of egg yolk phosphatidylcholine (EYPC, 22.0 mg, 28.9 µmol) in CHCl3 (225 µL) and egg yolk phosphatidylglycerol (1.2 0 […]
mM HEPES, 100 mM NaCl, 20 mM CF) by sonication. After five -times freeze-thaw cycles, the lipid […]
concentration of the resultant CF -encapsulated LUV suspension was deduced from the phosphatidylcholine concentration determined by using Phospholipid C -Test Wako. The lipid concentration of the LUV […]
as 5-fold serial dilution. The solution of peptide (2.0 µL) and the CF-encapsulated LUV suspension (200 […]
The resultant suspension was incubated at room temperature for 30 min. The fluorescence (Ex. 490 nm/Em. 517 nm) of each well was measured on Gemini EM microplate reader. Triton X-100/H2O (5/95, 3.0 µL), DMSO (2.0 µL), and the LUV suspension were mixed in each plate to determine 100% lysis. […]
was used to determine 0% lysis. The membrane disruption activities of tested peptides ( I) were normalized against 100% lysis by Triton X-100 (Imax) and 0% lysis by DMSO ( I0) according to Supplementary Equation 2 , where Ix is the fluorescence intensity.
The membrane disruption activities of the purified peptides were plotted as means of three replicates (Supplementary Figure 1).

[5] = test system: Listeria monocytogenes 10403S
Protocol: (§3) Third, 1 was subjected to five pathogenic Gram-positive bacteria.
as §1, §2

[6] = test system: Enterococcus faecalis JCM5803
Protocol: as §3, §1, §2

[7] = test system: Streptococcus agalactiae JCM5671
Protocol: as §3, §1, §2

[8] = test system: Streptococcus pyogenes SSI-9
Protocol: as §3, §1, §2

[9] = test system: Streptococcus pneumoniae NBRC 102642
Protocol: as §3, §1, §2

CC(C)C[C@@H](NC(=O)[C@H](C)NC(=O)[C@H](NC(=O)[C@H](C)NC(=O)CNC(=O)[C@@H](NC=O)C(C)C)C(C)C)C(=O)N[C@H](C(=O)N[C@@H](C(=O)N[C@@H](Cc1c[nH]c2ccccc12)C(=O)N[C@@H](C(=O)N[C@@H](Cc1c[nH]c2ccccc12)C(=O)N[C@H](CC(C)C)C(=O)N[C@@H](Cc1c[nH]c2ccccc12)C(=O)N[C@H](CC(C)C)C(=O)N[C@@H](Cc1c[nH]c2ccccc12)C(=O)NCCO)C(C)C)C(C)C)C(C)C [B02] (For-VGA[dV]A[dL]V[dV]W[dV]W[dL]W[dL]W-NHCH2CH2OH)
Supplementary Figure 5 dose-response value (H+/Na+ transport) ([1]; concentration 0.000512 nM): 0.2643 and 0.7827 and 0.1241 | Supplementary Figure 5 dose-response value (H+/Na+ transport) ([1]; concentration 0.00256 nM): 2.146 and 0.0547 and 1.671 | Supplementary Figure 5 dose-response value (H+/Na+ transport) ([1]; concentration 0.0128 nM): 4.163 and 0.6112 and 1.64 | Supplementary Figure 5 dose-response value (H+/Na+ transport) ([1]; concentration 0.064 nM): 7.246 and 2.883 and 3.652 | Supplementary Figure 5 dose-response value (H+/Na+ transport) ([1]; concentration 0.32 nM): 11.0985 and 10.392 and 10.3413 | Supplementary Figure 5 dose-response value (H+/Na+ transport) ([1]; concentration 1.6 nM): 29.1914 and 27.2825 and 29.9486 | Supplementary Figure 5 dose-response value (H+/Na+ transport) ([1]; concentration 8 nM): 56.3118 and 49.6431 and 51.0872 | Supplementary Figure 5 dose-response value (H+/Na+ transport) ([1]; concentration 40 nM): 73.3306 and 69.0608 and 69.1921 | Supplementary Figure 5 dose-response value (H+/Na+ transport) ([1]; concentration 200 nM): 73.6961 and 72.6071 and 72.9778 | Supplementary Figure 5 dose-response value (H+/Na+ transport) ([1]; concentration 1000 nM): 75.3536 and 79.2012 and 75.9728 | Supplementary Figure 5 dose-response value (H+/Na+ transport) ([1]; concentration 5000 nM): 75.4417 and 72.7674 and 77.9824 | EC50 ([1]; read-out: EC50, H+/Na+ transport assay, 1st experiment): 3.08 nM | EC50 ([1]; read-out: EC50, H+/Na+ transport assay, 2nd experiment): 1.68 nM | EC50 ([1]; read-out: EC50, H+/Na+ transport assay, 3rd experiment): 5.38 nM | EC50 ([1]; read-out: H+/Na+ transport activity EC50, EYPC/EYPG (19:1) LUVs): 3.4 nM | EC50 ([1]; read-out: H+/Na+ transport activity/EC50, mean ± SD of three independent experiments): 3.38 ± 1.87 nM | IC50 ([2]; Cytotoxicity IC50): 17 nM | IC50 ([2]; IC50, mammalian cytotoxicity assay): 18.7 nM | IC50 ([2]; cytotoxicity against P388 cells/IC50): 16.8 ± 2.82 nM | antibacterial activity/MIC [3]: 32 µg/mL | Supplementary Figure 1 dose-response value ([4]; concentration 0.000512 nM): 9.02 and 15.736 and 15.2512 | Supplementary Figure 1 dose-response value ([4]; concentration 0.00256 nM): 10.3575 and 0.7916 and 7.576 | Supplementary Figure 1 dose-response value ([4]; concentration 0.0128 nM): 7.7612 and 17.627 and 12.0633 | Supplementary Figure 1 dose-response value ([4]; concentration 0.064 nM): 6.7018 and 5.872 and 12.3383 | Supplementary Figure 1 dose-response value ([4]; concentration 0.32 nM): 3.446 and 4.916 and 7.303 | Supplementary Figure 1 dose-response value ([4]; concentration 1.6 nM): 10.6531 and 8.102 and 5.996 | Supplementary Figure 1 dose-response value ([4]; concentration 8 nM): 14.5931 and 12.2206 and 13.5025 | Supplementary Figure 1 dose-response value ([4]; concentration 40 nM): 11.4708 and 19.6235 and 9.068 | Supplementary Figure 1 dose-response value ([4]; concentration 200 nM): 17.1246 and 21.9524 and 27.5088 | Supplementary Figure 1 dose-response value ([4]; concentration 1000 nM): 23.4943 and 22.4951 and 16.9683 | Supplementary Figure 1 dose-response value ([4]; concentration 5000 nM): 38.5863 and 36.6933 and 43.5874 | Antibacterial activity MIC ([5]; 10403S): 2.1 µM | antibacterial activity/MIC ([5]; L. monocytogenes): 4 µg/mL | antibacterial activity/MIC ([6]; E. faecalis): 0.25 µg/mL | Antibacterial activity MIC ([6]; JCM5803): 0.13 µM | Antibacterial activity MIC ([7]; JCM5671): 8.6 µM | antibacterial activity/MIC ([7]; S. agalactiae): 16 µg/mL | antibacterial activity/MIC ([8]; S. pyogenes): 0.13 µg/mL | Antibacterial activity MIC ([8]; SSI-9): 0.067 µM | Antibacterial activity MIC ([9]; NBRC 102642): 0.0083 µM | antibacterial activity/MIC ([9]; S. pneumoniae): 0.016 µg/mL
